One may read the IC50 as the point on the concentration scale where inhibition reaches its midpoint. For orientation: melting point means the temperature of the solid-liquid transition.

Molecules are shown by their SMILES. A value given as a limit tells only on which side of the number the result lay.

Series [1] concerns the target T1, hA2b receptors (Homo sapiens, UniProt P29275).
T1 construct: purchased Receptor Biology, Inc. (USA); host or cells: HEK293
T1 sequence (P29275 1-332): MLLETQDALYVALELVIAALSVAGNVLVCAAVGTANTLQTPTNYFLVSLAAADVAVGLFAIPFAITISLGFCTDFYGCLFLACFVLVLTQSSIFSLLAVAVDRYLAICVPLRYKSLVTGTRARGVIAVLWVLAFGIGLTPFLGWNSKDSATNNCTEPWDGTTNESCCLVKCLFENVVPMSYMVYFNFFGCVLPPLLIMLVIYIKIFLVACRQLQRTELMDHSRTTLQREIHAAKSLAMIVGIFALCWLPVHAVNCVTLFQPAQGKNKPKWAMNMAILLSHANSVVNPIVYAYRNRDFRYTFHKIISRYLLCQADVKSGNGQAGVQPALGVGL
Put plainly: Adenosine 2b receptor subtype competition radioligand binding ([3H]DPCPX). Particulars: membranes from hA2b receptors transfected to HEK293 cells, 30 min at 25° C., read-out: IC50 A2b. The method, then: Adenosine 2b Receptor Subtype Competition Radioligand Binding
Human membranes from recombinant A2b receptors were purchased from Receptor Biology, Inc. (USA).
Competition assays were carried out by incubation of membranes from hA2b receptors transfected to HEK293 cells, [^3H]DPCPX as radioligand, buffer (50 mM Tris-HCl (pH 6.5), 10 mM MgCl2, 1 mM EDTA, 0.1 mM benzamidine, 2 units/ml adenosine deaminase), and unlabelled ligand in a total volume of 0.1 ml for 30 min at 25° C. NECA was used to determinate non-specific binding. Filter over Schleicher&Schuell GF/52 filters (pre-soaked 0.5% polyethylenyimine) in a Brandel cell harvester. Unbound radioligand was removed with 4×2 ml ice-cold 50 mM Tris-Hcl 50 mM (pH 6.5).

Series [2] concerns the target T2, hA2a receptors (Homo sapiens, UniProt P29274).
T2 construct: purchased Receptor Biology, Inc. (USA); host or cells: HEK293
In words: Adenosine 2a receptor subtype competition radioligand binding ([3H]ZM241385). Particulars: membranes from hA2a receptors transfected to HEK293 cells, [3H]ZM241385, 90 min at 25° C.; read-out: IC50 A2a. The method, then: Adenosine 2a Receptor Subtype Competition Radioligand Binding
Human membranes from recombinant A2a receptors were purchased from Receptor Biology, Inc. (USA).
Competition assays were carried out by incubation of membranes from hA2a receptors transfected to HEK293 cells, [^3H]ZM241385 as radioligand, buffer (50 mM Tris-HCl (pH 7.4), 10 mM MgCl2, 1 mM EDTA, 2 units/ml adenosine deaminase), and unlabelled ligand in a total volume of 0.2 ml for 90 min at 25° C. NECA was used to determinate non-specific binding. Filter over Schleicher&Schuell GF/52 filters (pre-soaked 0.5% polyethylenyimine) in a Brandel cell harvester. Unbound radioligand was removed with 3×3 ml ice-cold 50 mM Tris-Hcl 50 mM (pH 7.4), 0.9% NaCl.

T2 sequence (P29274 whole entry): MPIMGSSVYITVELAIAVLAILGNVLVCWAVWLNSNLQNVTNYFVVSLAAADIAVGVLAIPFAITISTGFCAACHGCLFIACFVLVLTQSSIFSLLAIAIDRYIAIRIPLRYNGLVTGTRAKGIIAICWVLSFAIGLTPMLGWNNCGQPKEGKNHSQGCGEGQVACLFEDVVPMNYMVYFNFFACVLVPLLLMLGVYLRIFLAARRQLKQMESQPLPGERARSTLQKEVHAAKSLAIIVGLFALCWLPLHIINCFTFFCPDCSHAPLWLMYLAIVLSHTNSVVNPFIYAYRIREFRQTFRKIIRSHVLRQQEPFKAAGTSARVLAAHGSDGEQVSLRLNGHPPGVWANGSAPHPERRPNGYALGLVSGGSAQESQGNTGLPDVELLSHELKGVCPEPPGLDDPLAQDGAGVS

Take `CCCn1c(=O)c2[nH]c(-c3ccc(OCC(=O)N4CCN(c5ccccc5)CC4)cc3)cc2n(CCC)c1=O` [Example 2, 6-{4-[2-Oxo-2-(4-phenylpiperazin-1-yl)ethoxy]phenyl}-1,3-dipropyl-1,5-dihydropyrrolo[3,2-d]pyrimidine-2,4-dione]: the half-inhibitory concentration (IC50) in series [1] was 7 nM.
Take `CCCn1c(=O)c2[nH]c(-c3ccc(OCC(=O)Nc4ccc(F)cc4)cc3)cc2n(CCC)c1=O` [Example 3, 2-[4-(2,4-Dioxo-1,3-dipropyl-2,3,4,5-tetrahydro-1H-pyrrolo[3,2-d]pyrimidin-6-yl)phenoxy]-N-(4-fluorophenyl)acetamide]: the half-maximal inhibitory concentration (IC50) in series [2] amounted to 22 nM; in series [1] it was 5 nM.
For the compound `CCCn1c(=O)c2[nH]c(-c3ccc(OCC(=O)N4CCc5ccccc5C4)cc3)cc2n(CCC)c1=O` [Example 4], the half-maximal inhibitory concentration (IC50) in series [1] stood at 3 nM.
Take `Cn1c(=O)c2[nH]c(-c3ccc(OCC(=O)Nc4nncs4)cc3)cc2n(C)c1=O` [Example 67, 2-[4-(1,3-Dimethyl-2,4-dioxo-2,3,4,5-tetrahydro-1H-pyrrolo[3,2-d]pyrimidin-6-yl)phenoxy]-N-[1,3,4]thiadiazol-2-ylacetamide]: the IC50 in series [2] worked out at 26 nM; in series [1], 24 nM.
With `Cn1c(=O)c2[nH]c(-c3ccc(OCC(=O)N4CCN(c5ccccc5)CC4)cc3)cc2n(C)c1=O` [Example 68, 1,3-Dimethyl-6-{4-[2-oxo-2-(4-phenylpiperazin-1-yl)ethoxy]phenyl}-1,5-dihydropyrrolo[3,2-d]pyrimidine-2,4-dione], in series [1], the IC50 is 8 nM.
In the case of `Cn1c(=O)c2[nH]c(-c3ccc(OCC(=O)N4CCN(c5cccc(C(F)(F)F)c5)CC4)cc3)cc2n(C)c1=O` [Example 74, 1,3-Dimethyl-6-(4-{2-oxo-2-[4-(3-trifluoromethylphenyl)piperazin-1-yl]ethoxy}phenyl)-1,5-dihydropyrrolo[3,2-d]pyrimidine-2,4-dione], the melting point is > 275 °C (dec.).
With `CCCn1c(=O)c2[nH]c(-c3ccc(OCC(=O)N4CCC(c5ccccc5)(c5ccccc5)CC4)cc3)cc2n(C)c1=O` [Example 100, 6-{4-[2-(4,4-Diphenylpiperidin-1-yl)-2-oxo-ethoxy]phenyl}-1-methyl-3-propyl-1,5-dihydropyrrolo[3,2-d]pyrimidine-2,4 dione], the half-maximal inhibitory concentration (IC50) in series [1] is 10 nM.
As to `CCCn1c(=O)c2[nH]c(-c3ccc(OCC(=O)Nc4ccc(F)cc4)cc3)c(Br)c2n(CCC)c1=O` [Example 138, 2-[4-(7-Bromo-2,4-dioxo-1,3-dipropyl-2,3,4,5-tetrahydro-1H-pyrrolo[3,2-d]pyrimidin-6-yl)phenoxy]-N-(4-fluorophenyl)acetamide], the half-maximal inhibitory concentration (IC50) in series [2] came to 38 nM.
On the same count and under the same terms, with `COc1cc(-c2cc3c([nH]2)c(=O)n(C)c(=O)n3C)ccc1OCC(=O)Nc1ccc(F)cc1` [Example 160, 2-[4-(1,3-Dimethyl-2,4-dioxo-2,3,4,5-tetrahydro-1H-pyrrolo[3,2-d]pyrimidin-6-yl)-2-methoxyphenoxy]-N-(4-fluorophenyl)acetamide] the figure was 84 nM.
Take `CCCn1c(=O)c2[nH]c(-c3ccc(OCc4nc(-c5ccccc5)no4)cc3)cc2n(CCC)c1=O` [Example 210, 6-[4-(3-Phenyl[1,2,4]oxadiazol-5-ylmethoxy)phenyl]-1,3-dipropyl-1,5-dihydropyrrolo[3,2-d]pyrimidine-2,4-dione]: the half-maximal inhibitory concentration (IC50) in series [1] was determined as 17 nM.
`CCCn1c(=O)c2[nH]c(-c3ccc(COC(=O)Nc4cc(OC)nc(OC)n4)cc3)cc2n(CCC)c1=O` [Example 259, (2,6-Dimethoxy-pyrimidin-4-yl)-carbamic Acid 4-(2,4-dioxo-1,3-dipropyl-2,3,4,5-tetrahydro-1H-pyrrolo[3,2-d]pyrimidin-6-yl)benzyl Ester]: the melting point lay within 182 to 185 °C.
Same read-out and setting: in the case of `Cn1c(=O)c2[nH]c(-c3ccc(COC(=O)Nc4ccccn4)cc3)cc2n(C)c1=O` [Example 268, Pyridin-2-yl-carbamic acid 4-(1,3-dimethyl-2,4-dioxo-2,3,4,5-tetrahydro-1H-pyrrolo[3,2-d]pyrimidin-6-yl)benzyl ester] it was 301 °C; in that of `Cc1ccc(NC(=O)OCc2ccc(-c3cc4c([nH]3)c(=O)n(C)c(=O)n4C)cc2)nc1` [Example 269, (5-Methylpyridin-2-yl)-carbamic acid 4-(1,3-dimethyl-2,4-dioxo-2,3,4,5-tetrahydro-1H-pyrrolo[3,2-d]pyrimidin-6-yl)benzyl ester], 293 °C.
Still for that read-out and setting: with `Cn1c(=O)c2[nH]c(-c3ccc(COC(=O)Nc4cccs4)cc3)cc2n(C)c1=O` [Example 270, Thiophen-2-yl-carbamic acid 4-(1,3-dimethyl-2,4-dioxo-2,3,4,5-tetrahydro-1H-pyrrolo[3,2-d]pyrimidin-6-yl)-benzyl ester] the figure was 287 °C; with `Cn1c(=O)c2[nH]c(-c3ccc(COC(=O)Nc4ccsc4)cc3)cc2n(C)c1=O` [Example 271, Thiophen-3-yl-carbamic acid 4-(1,3-dimethyl-2,4-dioxo-2,3,4,5-tetrahydro-1H-pyrrolo[3,2-d]pyrimidin-6-yl)-benzyl ester], 280 °C.
The same measure, in the same setting: with `Cn1c(=O)c2[nH]c(-c3ccc(COC(=O)Nc4ccco4)cc3)cc2n(C)c1=O` [Example 272, Furan-2-yl-carbamic acid 4-(1,3-dimethyl-2,4-dioxo-2,3,4,5-tetrahydro 1H-pyrrolo[3,2-d]pyrimidin-6-yl)-benzyl ester] the figure was 278 °C.

The values above are taken from patent US20050070558A1, “6-Phenyldihydropyrrolopyrimidinedione derivatives” (priority 2001, published 2005).
